Columns and labels:
Assay in all cases: relative viability (nuclei count vs DMSO), 5 days (fraction); higher = more cells survive
BAY61-3606 + Vorinostat = compound: COC1=C(C=C(C=C1)C2=CC3=NC=CN3C(=N2)NC4=C(C=CC=N4)C(=O)N)OC [BAY61-3606] + O=C(CCCCCCC(=O)Nc1ccccc1)NO [Vorinostat] (partner 1 µM)
Method in brief: (§1)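 Relative viability equals treated-well nuclei counts divided by vehicle-well nuclei counts. Counts came from 4× images of lung cancer cell lines grown in 1536-well plates for 5 days after pin-tool dosing on the day after seeding. Dosing used one drug alone or a fixed anchor-drug dose plus five library-drug doses (not always all listed) in √10 steps, and values are medians of duplicate plates.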

Doxorubicin + Tozasertib = compound: COc1cccc2c1C(=O)c1c(O)c3c(c(O)c1C2=O)C[C@@](O)(C(=O)CO)C[C@@H]3O[C@H]1C[C@H](N)[C@H](O)[C@H](C)O1 [Doxorubicin] + Cc1cc(Nc2cc(N3CCN(C)CC3)nc(Sc3ccc(NC(=O)C4CC4)cc3)n2)n[nH]1 [Tozasertib] (partner 0.1 µM)
Method in brief: as §1

Doxorubicin + Olaparib = compound: COc1cccc2c1C(=O)c1c(O)c3c(c(O)c1C2=O)C[C@@](O)(C(=O)CO)C[C@@H]3O[C@H]1C[C@H](N)[C@H](O)[C@H](C)O1 [Doxorubicin] + O=C(c1cc(Cc2n[nH]c(=O)c3ccccc23)ccc1F)N1CCN(C(=O)C2CC2)CC1 [Olaparib] (partner 8 µM)
Method in brief: as §1

Doxorubicin + Luminespib = compound: COc1cccc2c1C(=O)c1c(O)c3c(c(O)c1C2=O)C[C@@](O)(C(=O)CO)C[C@@H]3O[C@H]1C[C@H](N)[C@H](O)[C@H](C)O1 [Doxorubicin] + CCNC(=O)c1noc(-c2cc(C(C)C)c(O)cc2O)c1-c1ccc(CN2CCOCC2)cc1 [Luminespib] (partner 0.01 µM)
Method in brief: as §1

Cell Line | relative viability (BAY61-3606 + Vorinostat; first compound 0.02 µM) | relative viability (BAY61-3606 + Vorinostat; first compound 0.06325 µM) | relative viability (BAY61-3606 + Vorinostat; first compound 0.2 µM) | relative viability (BAY61-3606 + Vorinostat; first compound 0.6325 µM) | relative viability (BAY61-3606 + Vorinostat; first compound 2 µM) | relative viability (Doxorubicin + Tozasertib; first compound 0.001 µM) | relative viability (Doxorubicin + Tozasertib; first compound 0.003162 µM) | relative viability (Doxorubicin + Tozasertib; first compound 0.01 µM) | relative viability (Doxorubicin + Tozasertib; first compound 0.03162 µM) | relative viability (Doxorubicin + Tozasertib; first compound 0.1 µM) | relative viability (Doxorubicin + Olaparib; first compound 0.001 µM) | relative viability (Doxorubicin + Olaparib; first compound 0.003162 µM) | relative viability (Doxorubicin + Olaparib; first compound 0.01 µM) | relative viability (Doxorubicin + Olaparib; first compound 0.03162 µM) | relative viability (Doxorubicin + Olaparib; first compound 0.1 µM) | relative viability (Doxorubicin + Luminespib; first compound 0.001 µM) | relative viability (Doxorubicin + Luminespib; first compound 0.003162 µM) | relative viability (Doxorubicin + Luminespib; first compound 0.01 µM) | relative viability (Doxorubicin + Luminespib; first compound 0.03162 µM) | relative viability (Doxorubicin + Luminespib; first compound 0.1 µM)
NCI-H2342 | 0.87 | 0.818 | 0.835 | 0.867 | 0.762 | 0.528 | 0.506 | 0.545 | 0.508 | 0.625 | 0.41 | 0.525 | 0.445 | 0.371 | 0.384 | 0.816 | 0.739 | 0.585 | 0.507 | 0.787
HCC-15 | 0.976 | 0.915 | 0.866 | 0.945 | 0.803 |  | 0.428 | 0.454 | 0.201 | 0.116 | 0.731 | 0.657 | 0.692 | 0.522 | 0.491 |  | 0.304 | 0.312 | 0.231 | 0.222
A-427 | 0.991 | 0.869 | 0.876 | 0.875 | 0.888 | 0.241 | 0.215 | 0.183 | 0.238 | 0.213 | 0.764 | 0.672 | 0.718 | 0.373 | 0.285 | 0.803 | 0.784 | 0.866 | 0.656 | 0.64
NCI-H2347 | 0.721 | 0.65 | 0.598 | 0.575 | 0.597 | 0.62 | 0.551 | 0.736 | 0.53 | 0.636 | 0.6 | 0.562 | 0.544 | 0.516 | 0.55 | 0.385 | 0.547 | 0.527 | 0.415 | 0.439
NCI-H1755 | 0.871 | 0.676 | 0.764 | 0.803 | 0.733 | 0.605 | 0.556 | 0.576 | 0.552 | 0.598 | 0.837 | 0.911 | 0.818 | 0.873 | 0.896 | 0.361 | 0.273 | 0.597 | 0.381 | 0.323
SK-LU-1 | 0.695 | 0.83 | 0.755 | 0.679 | 0.504 | 0.318 | 0.326 | 0.288 | 0.173 | 0.179 | 0.512 | 0.451 | 0.397 | 0.359 | 0.356 | 0.204 | 0.215 | 0.249 | 0.203 | 0.165
NCI-H1975 | 0.849 | 0.734 | 0.712 | 0.722 | 0.585 | 0.745 | 0.711 | 0.664 | 0.303 | 0.178 | 0.746 | 0.896 | 0.728 | 0.575 | 0.37 | 0.139 | 0.183 | 0.249 | 0.167 | 0.178
NCI-H1703 |  |  |  |  |  |  |  |  |  |  | 0.377 | 0.332 | 0.309 | 0.222 | 0.177 |  |  |  |  | 
HCC-44 | 1.05 | 1.05 | 1 | 0.966 | 1.26 | 0.767 | 0.882 | 0.797 | 0.284 | 0.321 | 0.929 | 1 | 0.997 | 1.01 | 0.993 | 0.879 | 0.838 | 0.658 | 0.526 | 0.273

— the supplement of paper PMC10307832
